{"source": "patent US11293024B2", "about": "“Antisense antibacterial compounds and methods” (priority 2014, dated 2022)", "tested_on": "existing P. aeruginosa PAO1 biofilm", "assay": "Biofilm reduction in MBEC plate (crystal violet)", "assay_type": "cell-based, Pseudomonas aeruginosa", "details": "at 10 and 5 μM; 2 μg/mL PMBN; 48 hour biofilm", "method": "P. aeruginosa PAO1 (5×10^5 cfu/mL) was grown in an MBEC plate for 24 hours. At 24 hours, the pegs were moved to a new 96-well plate containing fresh MHII media and either scrambled, RpsJ, or AcpP PPMO at the indicated concentrations. All wells containing PPMOs (including Scrambled) contained 2 μg/mL of PMBN. The pegs were again moved to new plates with or without PPMOs at 32 and 40 hours. Pegs were processed for crystal violet or visualized with microscopy at 48 hours. […] FIGS. 7B-7D: Spinning Disk confocal microscopy images of 48 hour biofilm treated with (FIG. 7B) 10 μM Scr PPMO #42, (FIG. 7C) 2.5 μM AcpP PPMO #35, (FIG. 7D) 10 μM AcpP PPMO #35. Green channel is PAO1 GFP; Red channel is biofilm stained with 200 μg/mL of Concanavalin A, Alexafluor 647 conjugate.\nPseudomonas aeruginosa Biofilm Reduction in MBEC Plate Protocol\n• 1. 10 mL of MH is inoculated with a single colony and incubated at 37° C. and ˜250 rpm for about 5 hours. • 2. The sample is centrifuged for 10 minutes at ˜4000 rpm at 4° C., the supernatant decanted and the pellet resuspended in 10 mL of 150 mM NaCl or PBS. This step is repeated to wash the pellet 3 times. • 3. […] The OD600 of the sample is taken and cfu/mL is calculated. […]\n1. […] The final OD570 of the 10× dilution of solution should be approximately 0.500 absorbance. […]\n2. OD reading: The OD570 for the 96-well plate from step 1e is determined. […]", "data": [{"substance": "PPMO #14: RpsJ PMO GCATTTGACCT, 5′ TEG, 3′ (RXR)4XB CPP", "values": [{"measurement": "reduction of existing biofilm (crystal violet)", "result": "statistically significant reduction of biofilm"}]}]}
